Entries after “also recorded” stand apart in the source; their conditions may differ.

One assay concerns the target T1, TAF1-2 (Homo sapiens, UniProt P21675).
T1 construct: a tandem bromodomain (BD1 and BD2)
T1 sequence (P21675 1519-1628 limits assumed): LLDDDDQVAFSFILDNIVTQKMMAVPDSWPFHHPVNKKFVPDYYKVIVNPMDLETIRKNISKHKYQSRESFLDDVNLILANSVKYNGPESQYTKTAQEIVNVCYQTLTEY
Kind of assay: DSF for TAFi with TAF1-2. It is filed as binding. As to conditions: protein TAF1-2, DMSO = 0.

The target in another assay is T2, purified FLAG-ATR (Homo sapiens, UniProt Q13535).
T2 construct: FLAG
The experiment in a line: ELISA-based kinase activity: phosphorylation of p53 S15 by purified FLAG-ATR in vitro. It is filed as biochemical. As to conditions: FIG. 3. An excerpt:
ELISA-based kinase activity was used to test the ability of compounds to inhibit phosphorylation of p53 S15 by purified FLAG-ATR in vitro.
(ELISA stands for enzyme-linked immunosorbent assay.)

Assay [1] concerns HCT116 cells with and without p53. Kind of assay: Western blot of marker expression (p21) in HCT116 cells with and without p53. As to conditions: HCT116 cells with and without p53, treated 30 hrs, FIG. 4. It is filed as cell-based. The procedure: HCT116 cells with and without p53 were treated with compounds for 30 hrs. Expression levels of indicated markers were determined by western blot.

T2 sequence (Q13535 whole entry): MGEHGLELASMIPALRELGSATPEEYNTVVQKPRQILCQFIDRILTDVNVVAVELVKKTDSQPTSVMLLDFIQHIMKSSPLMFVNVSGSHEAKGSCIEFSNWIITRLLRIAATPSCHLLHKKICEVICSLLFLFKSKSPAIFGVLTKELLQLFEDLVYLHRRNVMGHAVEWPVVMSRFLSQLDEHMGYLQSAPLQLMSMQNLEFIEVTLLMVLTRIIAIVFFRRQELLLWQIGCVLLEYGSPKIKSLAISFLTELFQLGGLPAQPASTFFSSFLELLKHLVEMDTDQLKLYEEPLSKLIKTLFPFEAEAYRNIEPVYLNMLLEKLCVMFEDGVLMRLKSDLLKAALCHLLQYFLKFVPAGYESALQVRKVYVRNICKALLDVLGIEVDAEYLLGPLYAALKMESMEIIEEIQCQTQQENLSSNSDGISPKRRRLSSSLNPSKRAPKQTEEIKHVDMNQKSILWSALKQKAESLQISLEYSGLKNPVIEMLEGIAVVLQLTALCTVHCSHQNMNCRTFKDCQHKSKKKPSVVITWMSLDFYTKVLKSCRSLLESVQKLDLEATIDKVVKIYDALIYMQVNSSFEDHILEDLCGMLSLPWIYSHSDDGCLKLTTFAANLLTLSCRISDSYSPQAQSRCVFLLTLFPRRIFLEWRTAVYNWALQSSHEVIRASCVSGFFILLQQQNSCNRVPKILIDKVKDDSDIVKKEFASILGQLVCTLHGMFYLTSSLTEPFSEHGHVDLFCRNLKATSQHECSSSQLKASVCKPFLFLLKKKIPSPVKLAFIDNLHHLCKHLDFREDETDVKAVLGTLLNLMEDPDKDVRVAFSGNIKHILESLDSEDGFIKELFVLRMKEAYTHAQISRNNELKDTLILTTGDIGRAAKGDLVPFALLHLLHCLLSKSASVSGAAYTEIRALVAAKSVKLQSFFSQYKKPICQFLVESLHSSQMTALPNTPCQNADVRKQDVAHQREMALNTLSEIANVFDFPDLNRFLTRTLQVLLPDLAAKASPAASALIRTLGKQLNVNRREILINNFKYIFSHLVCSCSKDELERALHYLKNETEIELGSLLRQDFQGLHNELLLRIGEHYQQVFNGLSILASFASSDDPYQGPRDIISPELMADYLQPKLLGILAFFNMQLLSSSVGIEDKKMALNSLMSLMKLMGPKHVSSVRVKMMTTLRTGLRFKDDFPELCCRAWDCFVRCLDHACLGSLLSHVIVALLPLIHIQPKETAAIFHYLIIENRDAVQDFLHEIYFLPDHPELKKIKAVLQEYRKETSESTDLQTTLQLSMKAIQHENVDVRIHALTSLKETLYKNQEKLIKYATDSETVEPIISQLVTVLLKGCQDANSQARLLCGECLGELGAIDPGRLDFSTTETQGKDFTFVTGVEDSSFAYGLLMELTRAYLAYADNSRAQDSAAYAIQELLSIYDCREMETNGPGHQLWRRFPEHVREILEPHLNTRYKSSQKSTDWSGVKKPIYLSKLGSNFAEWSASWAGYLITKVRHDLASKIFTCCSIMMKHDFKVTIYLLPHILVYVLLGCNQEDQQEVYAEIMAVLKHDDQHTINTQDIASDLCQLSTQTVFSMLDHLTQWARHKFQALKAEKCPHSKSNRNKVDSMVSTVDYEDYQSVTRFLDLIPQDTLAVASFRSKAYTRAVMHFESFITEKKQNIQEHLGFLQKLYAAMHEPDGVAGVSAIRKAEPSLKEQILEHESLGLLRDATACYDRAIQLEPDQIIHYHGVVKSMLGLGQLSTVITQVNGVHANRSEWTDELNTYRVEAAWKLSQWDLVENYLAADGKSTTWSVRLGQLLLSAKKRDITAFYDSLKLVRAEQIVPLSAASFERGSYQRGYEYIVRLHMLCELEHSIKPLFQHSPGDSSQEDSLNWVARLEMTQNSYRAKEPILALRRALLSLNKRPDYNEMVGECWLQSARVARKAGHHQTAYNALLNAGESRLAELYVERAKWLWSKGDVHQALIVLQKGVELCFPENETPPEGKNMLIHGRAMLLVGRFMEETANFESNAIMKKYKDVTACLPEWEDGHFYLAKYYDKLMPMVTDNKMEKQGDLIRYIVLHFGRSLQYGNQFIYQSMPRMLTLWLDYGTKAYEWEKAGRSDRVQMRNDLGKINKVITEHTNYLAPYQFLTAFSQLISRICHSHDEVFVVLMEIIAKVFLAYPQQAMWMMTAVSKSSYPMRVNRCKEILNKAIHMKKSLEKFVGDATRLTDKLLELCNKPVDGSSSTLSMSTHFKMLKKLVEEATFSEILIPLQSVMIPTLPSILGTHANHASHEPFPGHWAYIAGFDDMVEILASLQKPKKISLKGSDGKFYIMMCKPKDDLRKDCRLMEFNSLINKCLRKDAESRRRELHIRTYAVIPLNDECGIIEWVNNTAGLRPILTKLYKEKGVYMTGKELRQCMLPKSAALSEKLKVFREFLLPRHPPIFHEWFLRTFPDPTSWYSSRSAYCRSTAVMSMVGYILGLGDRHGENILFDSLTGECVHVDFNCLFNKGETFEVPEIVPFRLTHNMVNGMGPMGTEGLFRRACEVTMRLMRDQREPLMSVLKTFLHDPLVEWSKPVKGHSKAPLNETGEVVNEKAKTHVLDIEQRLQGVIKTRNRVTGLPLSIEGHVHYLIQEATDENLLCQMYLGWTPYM

`C[C@@H]1COCCN1c1cc(C2([S@](C)(=N)=O)CC2)nc(-c2cc[nH]c3nccc2-3)n1` [AZD6738]: the “ATm + SEM (° C.)” value at TAF1-2 amounted to 3.4 ± 0.1 °C. `C=CCCn1cc(-c2cc(C(=O)N3CCOCC3)cc3c2ncn3C)c2cc[nH]c2c1=O` [GNE-371, reference compound]: on purified FLAG-ATR, the “inhibition of ATR (phosphorylation of p53 S15)” value was “absence of inhibition”.

In the case of `C=CCCn1cc(-c2cc(C3([S@](C)(=N)=O)CC3)nc(-c3ccnc4[nH]ccc34)n2)c2cc[nH]c2c1=O` [ZS1-681], on purified FLAG-ATR, the “inhibition of ATR (phosphorylation of p53 S15)” value was “does not inhibit ATR; also recorded: absence of inhibition”. In addition, the “p53-mediated p21 expression” value in assay [1] is on record as “induces p53-mediated p21 expression”.

The values above are taken from patent US12617787B2, “Merged scaffold TAF1 inhibitors” (H. LEE MOFFITT CANCER CENTER AND RESEARCH INSTITUTE, INC., priority 2020, dated 2026).
